The source of these data is US5120641A (Daiichi Pure Chemicals Co., Ltd., priority 1989, dated 1992).

Entries after “also recorded” stand apart in the source; their conditions may differ. Where two headings read alike, the source gives them in different places.

The target of assay [1] is T1, serotonin uptake sites ([^3 H]6-nitroquipazine binding, rat brain membranes) (Rattus norvegicus, UniProt P31652).
T1 construct: from tissue; host or cells: rat brain minus cerebellum, pons and medulla oblongata; washed membrane homogenate
T1 sequence (P31652 whole entry): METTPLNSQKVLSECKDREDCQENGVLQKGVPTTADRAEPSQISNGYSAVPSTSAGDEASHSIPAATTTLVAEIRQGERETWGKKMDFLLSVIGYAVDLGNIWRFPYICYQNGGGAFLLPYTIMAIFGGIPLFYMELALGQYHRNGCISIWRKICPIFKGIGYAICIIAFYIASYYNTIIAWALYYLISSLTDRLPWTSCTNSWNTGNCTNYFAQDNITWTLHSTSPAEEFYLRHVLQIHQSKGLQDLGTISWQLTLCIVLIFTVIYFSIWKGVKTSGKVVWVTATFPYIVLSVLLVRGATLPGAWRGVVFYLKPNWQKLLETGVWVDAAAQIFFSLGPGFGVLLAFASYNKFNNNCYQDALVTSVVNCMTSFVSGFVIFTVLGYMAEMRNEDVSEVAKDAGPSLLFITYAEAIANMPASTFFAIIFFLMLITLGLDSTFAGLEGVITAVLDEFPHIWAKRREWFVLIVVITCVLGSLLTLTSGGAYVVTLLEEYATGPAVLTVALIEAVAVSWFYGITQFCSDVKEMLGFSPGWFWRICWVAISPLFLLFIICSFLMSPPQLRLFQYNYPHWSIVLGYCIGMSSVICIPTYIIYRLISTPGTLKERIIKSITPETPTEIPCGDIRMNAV
Description: Inhibition of [^3 H]6-nitroquipazine binding by several drugs. On the procedure:
(§1) Rats were killed by decapitation and the brains (minus cerebellum, pons medulla and oblongata) were rapidly removed. The brain tissue was homogenized in 50 volumes of ice-cold buffer (50 mM Tris-HCl, 120 mM NaCl, 5 mM KCl, pH 7.4) with a Kinematica Polytron homogenizer at setting 5 for 30 seconds. The homogenate was centrifuged at 48,000×g for 10 minutes. The resulting pellet was resuspended in 50 volumes of ice-cold buffer and recentrifuged. The final pellet was resuspended in the same 50 volumes of buffer.
(§2) Aliquots of membrane suspension were incubated with [^3 H]6-nitroquipazine (30-1,200 pM) at 22° C. for 2 hours for the equilibrium saturation. After the addition of 4 ml of ice-cold buffer the homogenates were rapidly filtered through Whatman GF/C filters pretreated with 0.05% polyethleneimine. The filters were washed with ice-cold buffer (3×5 ml). The radioactivity trapped by the filters was determined by a liquid scintillation counter.
Ten different concentrations of the drugs were used for each determination. Aliquots of membrane suspension were incubated with [^3 H]6-nitroquipazine at 22° C. for 2 hours. The specific binding of [^3 H]6-nitroquipazine was determined as described in Example 2.
Drug IC50 values were defined by means of the iterative non-linear least-squares method.

The target in assay [2] is T2, serotonin uptake sites (rat cerebral cortical membranes) (Rattus norvegicus, UniProt P31652).
T2 construct: The cerebral cortex of rat brain was rapidly dissected; from tissue; host or cells: rat cerebral cortex membranes (p-chloroamphetamine-treated rats)
T2 sequence (P31652 whole entry): as above
Description: [^3 H]6-nitroquipazine binding to cerebral cortical membranes after serotonin neuronal lesions with p-chloroamphetamine. Conditions: for Bmax / Kd: cerebral cortex, mean ± S.E.M. On the procedure:
as §2
(§3) Rats were injected i.p. three times (24 hours interval) with p-chloroamphetamine (2.5 mg/kg), and were decapitated 7 days after final injection. The cerebral cortex of rat brain was rapidly dissected, and [^3 H]6-nitroquipazine binding to cerebral cortical membranes was examined as described previously.

For assay [3], the target named is serotonin uptake sites (rat brain regions) (Rattus norvegicus, UniProt P31652). Description: Regional distribution of [^3 H]6-nitroquipazine binding in rat brain. On the procedure: as §2
Sequence of serotonin uptake sites (rat brain regions) (P31652 whole entry): as above
Rats were killed by decapitation and the brains were dissected (cerebral cortex, striatum, hippocampus, hypothalamus, midbrain, cerebellum, pons medulla and oblongata) on ice. [^3 H]6-Nitroquipazine binding was estimated as described previously.

Assay [4] deals with T3, serotonin uptake sites (rat brain membranes) (Rattus norvegicus, UniProt P31652).
T3 construct: from tissue; host or cells: rat brain minus cerebellum, pons and medulla oblongata; washed membrane homogenate
T3 sequence (P31652 whole entry): as above
Description: [^3 H]6-Nitroquipazine saturation binding to rat brain membranes (Scatchard analysis). On the procedure:
as §1, §2

The test system of assay [5] is rat cerebral cortex. Description: Serotonin and 5-hydroxyindoleacetic acid content in cerebral cortex of p-chloroamphetamine lesioned rats. It counts as in vivo. On the procedure:
as §3

The mark [6] stands for this setting: […] [^3 H]6-nitroquipazine, 22° C., 2 hours.

In general, Ki refers to the dissociation constant of the complex between target and ligand, obtained from inhibition or displacement. `O=[N+]([O-])c1ccc2nc(N3CCNCC3)ccc2c1` [6-Nitroquipazine, 6-nitro-2-piperazinylquinoline]: the “Ki” value in assay [1] (setting [6]) is “low nanomolar ranges”; in assay [1] (read-out: Ki), 0.128 nM.
For the compound `c1ccc2c(CCC3CCNCC3)c[nH]c2c1` [Indalpine], the “Ki” value is “low nanomolar ranges” in assay [1] (setting [6]) and 1.93 nM in assay [1] (read-out: Ki).
Turning to `O=[N+]([O-])c1ccc2nc(N3CCNCC3)ccc2c1` [[^3 H]6-nitroquipazine, Tritium-labeled 6-nitro-2-piperazinylquinoline], the Bmax in assay [2] (control rats) was 616.0 ± 64.4 fmole/mg protein; in assay [2] (rats treated with p-chloroamphetamine (2.5 mg/kg i.p. x3), ***P < 0.001 vs control), 170.5 ± 44.8 fmole/mg protein; in assay [3] (Cerebellum), 91.2 ± 4.0 fmole/mg protein; in assay [3] (Cortex), 565.6 ± 28.3 fmole/mg protein; in assay [3] (Hippocampus), 612.2 ± 35.4 fmole/mg protein; in assay [3] (Hypothalamus), 1211.8 ± 33.2 fmole/mg protein. For the same compound, the values for the Bmax in assay [3] (Medulla oblongata), in assay [3] (Midbrain) and in assay [3] (Striatum) were 598.2 ± 25.6 fmole/mg protein, 1107.8 ± 30.2 fmole/mg protein and 807.4 ± 41.5 fmole/mg protein, respectively. Moreover, the Kd in assay [2] (control rats) is 0.141 nM; in assay [2] (rats treated with p-chloroamphetamine (2.5 mg/kg i.p. x3), *P < 0.01 vs control), 0.108 ± 0.01 nM; in assay [4] (rat brain membranes, 22° C., 2 hours, 30-1,200 pM radioligand, Scatchard analysis, read-out: apparent equilibrium dissociation constant (Kd)), 0.093 nM. For the same compound, the “specific binding by brain region” value in assay [3] (rat brain regions) is “highest in the hypothalamus and midbrain; also recorded: moderately high in the striatum, hippocampus, medulla oblongata and cerebral cortex; also recorded: lowest in the cerebellum”. In assay [4] (FIG. 1), the “binding to rat brain membranes” value was “bound with high affinity to rat brain membranes in a saturable and reversible fashion”. For the same compound, in assay [4] (at equilibrium, 110 pM [^3 H]6-nitroquipazine, non-specific: 1 μM paroxetine), the “specific binding as share of total binding” value came to 95%. For the same compound, in assay [4] (no comparative data given), the “potency compared with [^3 H]imipramine and [^3 H]paroxetine” value is “more potent than [^3 H]imipramine and [^3 H]paroxetine”. In addition, in assay [4] (rat brain membranes, 22° C., 2 hours, Scatchard analysis), the “maximal number of binding sites (Bmax)” value is 832 fmol/mg protein.
For `CC(N)Cc1ccc(Cl)cc1` (centres unmarked) [p-chloroamphetamine], the “decrease of [^3 H]6-nitroquipazine binding to cortical membranes of lesioned rats compared to controls” value in assay [2] (p-chloroamphetamine 2.5 mg/kg i.p. three times, 7 days after final injection) was found to be 72%. Also, the “Kd change in lesioned rats” value in assay [2] (p-chloroamphetamine 2.5 mg/kg i.p. three times, compared to controls) was “slightly decreased”. Besides, the “endogenous serotonin levels and [^3 H]6-nitroquipazine binding” value in assay [5] (destruction of serotonin neuron terminals by p-chloroamphetamine) is “decreases in endogenous serotonin levels and [^3 H]6-nitroquipazine binding”. Further, in assay [5] (lesioned rats, p-chloroamphetamine 2.5 mg/kg i.p. three times, control 0.2123±0.038), the “content of 5-hydroxyindoleacetic acid in the cerebral cortex” value is on record as 0.0541±0.008 ng/mg tissue. Also, the “content of serotonin in the cerebral cortex” value in assay [5] (lesioned rats, p-chloroamphetamine 2.5 mg/kg i.p. three times, control 0.3362±0.037) amounted to 0.129±0.037 ng/mg tissue.
